Experimental findings from patent US10363257B2 (ZENITH EPIGENETICS LTD., priority 2013, dated 2019) are described below.

Structures are written as SMILES.

In assay [1] the target is T1, Brd4 bromodomain 1 (BRD4(1)) (Homo sapiens, UniProt O60885).
T1 construct: made in house; host or cells: E. coli BL21(DE3)
Briefly: Inhibition of tetra-acetylated histone H4 binding to Brd4 bromodomain 1 (TR-FRET). The settings on record: tetra-acetylated histone H4 peptide, first bromodomain of Brd4. A digest of the protocol:
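His-tagged BRD4(1) from E. coli (200 nM) with biotinylated tetra-acetylated H4 peptide (25-50 nM), Eu-cryptate streptavidin and XL665 anti-His, in HEPES pH 7.4/phosphate/KF buffer, 0.2% DMSO. After 2 h at room temperature, TR-FRET 665/620 nm ratio read; IC50 from dose-response curves.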

Assay [2] deals with c-myc. Briefly: Inhibition of c-myc expression (mRNA, real-time PCR) in MV4-11 cells. It counts as cell-based. The settings on record: Human AML MV4-11 cells, 3 h, cMYC mRNA. A digest of the protocol:
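MV4-11 cells treated 3 h at 37° C with increasing compound concentrations or 0.1% DMSO, in triplicate. cMYC mRNA quantified by one-step TaqMan real-time PCR, Ct normalized to internal control (Cyclophilin primers used), fold expression relative to control.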

Assay [3] deals with human AML MV-4-11 cells. Description: Inhibition of cell proliferation in MV4-11 cells (CellTiter Aqueous One). It counts as cell-based. The settings on record: for IC50: MV4-11, 72 h. An outline of the steps:
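Exponentially growing MV-4-11 cells (5×10^4/well) were treated immediately with two-fold dilutions of compound from 30 μM to 0.2 μM, in triplicate, for 72 h at 37° C, 5% CO2. Viability was measured by MTS absorbance at 490 nm after 3–4 h. Proliferation relative to DMSO after blank correction gave IC50.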

Assay [4] relates to hIL-6 mRNA. Briefly: Inhibition of hIL-6 mRNA transcription in LPS-stimulated U937 cells. The settings on record: Homo sapiens, U-937; PMA-differentiated U937 cells, 1 h pretreatment, 1 ug/mL LPS stimulation, 3 h; read-out: IL-6 activity (Inhibition of hIL-6 mRNA Transcription). It counts as cell-based. A digest of the protocol: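 U937 cells differentiated 3 days with 60 ng/mL PMA, pretreated 1 h with compound (0.1% DMSO), then stimulated with 1 ug/mL E. coli LPS for 3 h at 37 °C. hIL-6 mRNA measured by one-step TaqMan RT-qPCR, normalized to cyclophilin. Fold expression relative to control; triplicate wells.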

Take `CCNc1nc2c([N+](=O)[O-])cc(-c3c(C)noc3C)cc2n1C(C)c1ccccc1` (centres unmarked) [compound 127, 6-(3,5-dimethylisoxazol-4-yl)-N-ethyl-4-nitro-1-(1-phenylethyl)-1H-benzo[d]imidazol-2-amine]: the IC50 in assay [1], in assay [2], in assay [3] and in assay [4] was no more than 300 nM each time.
In the case of `Cc1noc(C)c1-c1cc(N)c2[nH]c(=O)n(Cc3ccc(O)cc3)c2c1` [compound 129, 4-amino-6-(3,5-dimethylisoxazol-4-yl)-1-(4-hydroxybenzyl)-1H-benzo[d]imidazol-2(3H)-one], the IC50 in assay [1] was no more than 300 nM; in assay [2], no more than 300 nM; in assay [3], 300 to 3000 nM; in assay [4], no more than 300 nM.
Regarding `CCNc1nc2ncc(-c3c(C)noc3C)cc2n1CC1CC1` [compound 131, 1-(cyclopropylmethyl)-6-(3,5-dimethylisoxazol-4-yl)-N-ethyl-1H-imidazo[4,5-b]pyridin-2-amine], the IC50 was no more than 300 nM in assay [1], 300 to 3000 nM in assay [2], 300 to 3000 nM in assay [3] and 300 to 3000 nM in assay [4].
In the case of `Cc1noc(C)c1-c1cc(N)c2nc(C)n(CC3CCC3)c2c1` [compound 132, 1-(cyclobutylmethyl)-6-(3,5-dimethylisoxazol-4-yl)-2-methyl-1H-benzo[d]imidazol-4-amine], the IC50 in assay [1] is no more than 300 nM; in assay [2], 300 to 3000 nM; in assay [3] it was 300 to 3000 nM; in assay [4], no more than 300 nM.
Take `Cc1noc(C)c1-c1cc(N)c2nc(C)n(CC3CCCC3)c2c1` [compound 133, 1-(cyclopentylmethyl)-6-(3,5-dimethylisoxazol-4-yl)-2-methyl-1H-benzo[d]imidazol-4-amine]: the IC50 in assay [1] is no more than 300 nM; in assay [2], no more than 300 nM; in assay [3], 300 to 3000 nM; in assay [4], no more than 300 nM.
For `Cc1noc(C)c1-c1cc(N)c2nc(N3CCCC3)n(Cc3ccccc3)c2c1` [compound 140, 1-benzyl-6-(3,5-dimethylisoxazol-4-yl)-2-(pyrrolidin-1-yl)-1H-benzo[d]imidazol-4-amine], the IC50 in assay [1], in assay [2], in assay [3] and in assay [4] was no more than 300 nM each time.
As to `Cc1noc(C)c1-c1cc(N)c2nc(N3CCN(C)CC3)n(Cc3ccccc3)c2c1` [compound 141, 1-benzyl-6-(3,5-dimethylisoxazol-4-yl)-2-(4-methylpiperazin-1-yl)-1H-benzo[d]imidazol-4-amine], the IC50 in assay [1], in assay [2], in assay [3] and in assay [4] was no more than 300 nM in each case.
Consider `Cc1noc(C)c1-c1cc(N)c2nc(C)n([C@@H](C)c3ccccc3)c2c1` [compound 143, (S)-6-(3,5-dimethylisoxazol-4-yl)-2-methyl-1-(1-phenylethyl)-1H-benzo[d]imidazol-4-amine], for which the IC50 in assay [1], in assay [2], in assay [3] and in assay [4] was no more than 300 nM throughout.
Turning to `Cc1noc(C)c1-c1cc(N)c2nc(C)n([C@H](C)c3ccccc3)c2c1` [compound 144, (R)-6-(3,5-dimethylisoxazol-4-yl)-2-methyl-1-(1-phenylethyl)-1H-benzo[d]imidazol-4-amine], the IC50 in assay [1], in assay [2], in assay [3] and in assay [4] was no more than 300 nM in each case.
Consider `CNc1nc2ncc(-c3c(C)noc3C)cc2n1Cc1ccccc1` [compound 146, 1-benzyl-6-(3,5-dimethylisoxazol-4-yl)-N-methyl-1H-imidazo[4,5-b]pyridin-2-amine], for which the IC50 in assay [1], in assay [2], in assay [3] and in assay [4] was no more than 300 nM each time.
`Cc1noc(C)c1-c1cc([N+](=O)[O-])c2nc(NCc3cccnc3)n(Cc3ccccc3)c2c1` [compound 148, 1-benzyl-6-(3,5-dimethylisoxazol-4-yl)-4-nitro-N-(pyridin-3-ylmethyl)-1H-benzo[d]imidazol-2-amine]: the IC50 in assay [1] is no more than 300 nM; in assay [2], 300 to 3000 nM; in assay [3] it was 300 to 3000 nM; in assay [4], no more than 300 nM.
For `CNc1nc2c([N+](=O)[O-])cc(-c3c(C)noc3C)cc2n1Cc1ccccc1` [compound 149, 1-benzyl-6-(3,5-dimethylisoxazol-4-yl)-N-methyl-4-nitro-1H-benzo[d]imidazol-2-amine], the IC50 in assay [1] was no more than 300 nM; in assay [2], no more than 300 nM; in assay [3], 300 to 3000 nM; in assay [4], no more than 300 nM.
With `CNc1nc2c(N)cc(-c3c(C)noc3C)cc2n1Cc1ccccc1` [compound 151, 1-benzyl-6-(3,5-dimethylisoxazol-4-yl)-N2-methyl-1H-benzo[d]imidazole-2,4-diamine], the IC50 in assay [1], in assay [2], in assay [3] and in assay [4] was no more than 300 nM throughout.
For the compound `Cc1noc(C)c1-c1cc(N)c2nc(NCc3ccccc3)n(Cc3ccccc3)c2c1` [compound 152, N2,1-dibenzyl-6-(3,5-dimethylisoxazol-4-yl)-1H-benzo[d]imidazole-2,4-diamine], the IC50 in assay [1] is no more than 300 nM; in assay [2], no more than 300 nM; in assay [3] it was 300 to 3000 nM; in assay [4], no more than 300 nM.
Turning to `Cc1noc(C)c1-c1cnc2nc(NCc3ccccc3)n(Cc3ccccc3)c2c1` [compound 153, N,1-dibenzyl-6-(3,5-dimethylisoxazol-4-yl)-1H-imidazo[4,5-b]pyridin-2-amine], the IC50 in assay [1], in assay [2], in assay [3] and in assay [4] was no more than 300 nM throughout.
Consider `Cc1noc(C)c1Nc1cnc2nc(C)n(Cc3ccccc3)c2c1` [compound 155, N-(1-benzyl-2-methyl-1H-imidazo[4,5-b]pyridin-6-yl)-3,5-dimethylisoxazol-4-amine], for which the results for the IC50 in assay [1], in assay [2] and in assay [4] were no more than 300 nM, 3000 to 30000 nM and 300 to 3000 nM, respectively. Besides, in assay [3] (72 h), the “Cell Proliferation activity” value was “Not active”.
For `Cc1noc(C)c1-c1ccc2c(c1)N(Cc1ccccc1)CC(=O)N2` [compound 156, 4-benzyl-6-(3,5-dimethylisoxazol-4-yl)-3,4-dihydroquinoxalin-2(1H)-one], the IC50 was no more than 300 nM in assay [1], 300 to 3000 nM in assay [2], 300 to 3000 nM in assay [3] and 300 to 3000 nM in assay [4].
As for `Cc1noc(C)c1-c1cc(N)c2nc(NCc3cccnc3)n(Cc3ccccc3)c2c1` [compound 157, 1-benzyl-6-(3,5-dimethylisoxazol-4-yl)-N2-(pyridin-3-ylmethyl)-1H-benzo[d]imidazole-2,4-diamine], the IC50 in assay [1], in assay [2], in assay [3] and in assay [4] was no more than 300 nM throughout.
With `Cc1noc(C)c1-c1cc(F)c2nc(C)n(Cc3ccccc3)c2c1` [compound 158, 4-(1-benzyl-4-fluoro-2-methyl-1H-benzo[d]imidazol-6-yl)-3,5-dimethylisoxazole], the IC50 in assay [1] was no more than 300 nM; in assay [2], 300 to 3000 nM; in assay [3], 300 to 3000 nM; in assay [4], 300 to 3000 nM.
For the compound `Cc1noc(C)c1-c1cnc2nc(N3CCOCC3)n(CC3CCCC3)c2c1` [compound 208, 4-(1-(cyclopentylmethyl)-6-(3,5-dimethylisoxazol-4-yl)-1H-imidazo[4,5-b]pyridin-2-yl)morpholine], the IC50 was no more than 300 nM in assay [1], no more than 300 nM in assay [2], 300 to 3000 nM in assay [3] and no more than 300 nM in assay [4].
In the case of `Cc1noc(C)c1-c1cnc2nc(N3CCC3)n(CC3CCCC3)c2c1` [compound 209, 4-(2-(azetidin-1-yl)-1-(cyclopentylmethyl)-1H-imidazo[4,5-b]pyridin-6-yl)-3,5-dimethylisoxazole], the IC50 in assay [1] is no more than 300 nM; in assay [2], 300 to 3000 nM; in assay [3], no more than 300 nM; in assay [4], no more than 300 nM.
As to `Cc1noc(C)c1-c1cnc2nc(N3CCC3)n(CC3CCC3)c2c1` [compound 211, 4-(2-(azetidin-1-yl)-1-(cyclobutylmethyl)-1H-imidazo[4,5-b]pyridin-6-yl)-3,5-dimethylisoxazole], the IC50 was no more than 300 nM in assay [1], 300 to 3000 nM in assay [2], no more than 300 nM in assay [3] and no more than 300 nM in assay [4].
For the compound `Cc1noc(C)c1-c1cnc2nc(NC3CCCC3)n(Cc3ccccc3)c2c1` [compound 214, 1-benzyl-N-cyclopentyl-6-(3,5-dimethylisoxazol-4-yl)-1H-imidazo[4,5-b]pyridin-2-amine], the IC50 in assay [1], in assay [2], in assay [3] and in assay [4] was no more than 300 nM each time.
